From the NIST ThermoML archive (doi:10.1016/j.fluid.2009.01.011)
± gives the expanded uncertainty stated by the source.

Test: activity coefficient (dimensionless); of the first substance listed, at infinite dilution; xn = mol fraction of the nth substance listed
Conditions: Liquid, Chromatography, x1 = 0

Compound | activity coefficient (308.15 K) | activity coefficient (318.15 K) | activity coefficient (328.15 K) | activity coefficient (338.15 K) | activity coefficient (348.15 K) | activity coefficient (358.15 K) | activity coefficient (368.15 K) | activity coefficient (298.15 K)
Cc1ccccc1C [1,2-dimethylbenzene] + CCCC[N+]1(C)CCCC1.O=S(=O)([O-])C(F)(F)F | 2.91 ± 0.13 | 2.93 ± 0.13 | 2.95 ± 0.13 | 2.97 ± 0.13 | 2.99 ± 0.13 | 3.01 ± 0.13 | 3.03 ± 0.13 | –
Cc1cccc(C)c1 [1,3-dimethylbenzene] + CCCC[N+]1(C)CCCC1.O=S(=O)([O-])C(F)(F)F | 3.44 ± 0.15 | 3.45 ± 0.15 | 3.47 ± 0.15 | 3.48 ± 0.15 | 3.5 ± 0.15 | 3.51 ± 0.15 | 3.53 ± 0.16 | –
Cc1ccc(C)cc1 [1,4-dimethylbenzene] + CCCC[N+]1(C)CCCC1.O=S(=O)([O-])C(F)(F)F | 3.32 ± 0.15 | 3.35 ± 0.15 | 3.38 ± 0.15 | 3.4 ± 0.15 | 3.43 ± 0.15 | 3.45 ± 0.15 | 3.48 ± 0.15 | –
C=CCCC [1-pentene] + CCCC[N+]1(C)CCCC1.O=S(=O)([O-])C(F)(F)F | 16.3 ± 0.7 | 15.3 ± 0.7 | 14.4 ± 0.6 | 13.5 ± 0.6 | 12.8 ± 0.6 | 12.2 ± 0.5 | – | 17.6 ± 0.8
COC(C)(C)C [2-methoxy-2-methylpropane] + CCCC[N+]1(C)CCCC1.O=S(=O)([O-])C(F)(F)F | 5.65 ± 0.25 | 5.64 ± 0.25 | 5.63 ± 0.25 | 5.62 ± 0.25 | 5.6 ± 0.25 | 5.59 ± 0.25 | 5.58 ± 0.25 | 5.67 ± 0.25
c1ccccc1 [benzene] + CCCC[N+]1(C)CCCC1.O=S(=O)([O-])C(F)(F)F | 1.44 ± 0.06 | 1.46 ± 0.06 | 1.48 ± 0.06 | 1.5 ± 0.06 | 1.53 ± 0.06 | 1.54 ± 0.06 | 1.56 ± 0.06 | 1.41 ± 0.06
C1CCCCCC1 [cycloheptane] + CCCC[N+]1(C)CCCC1.O=S(=O)([O-])C(F)(F)F | 27 ± 1.2 | 24.9 ± 1.1 | 23.1 ± 1 | 21.6 ± 1 | 20.1 ± 0.9 | 18.9 ± 0.8 | 17.9 ± 0.8 | 29.3 ± 1.3
C1CCCCC1 [cyclohexane] + CCCC[N+]1(C)CCCC1.O=S(=O)([O-])C(F)(F)F | 23.4 ± 1 | 21.4 ± 1 | 19.7 ± 0.9 | 18.1 ± 0.8 | 16.8 ± 0.7 | 15.6 ± 0.7 | 14.6 ± 0.6 | 25.7 ± 1.1
C1CCCCCCC1 [cyclooctane] + CCCC[N+]1(C)CCCC1.O=S(=O)([O-])C(F)(F)F | 34 ± 1.5 | 31.4 ± 1.4 | 29.1 ± 1.3 | 26.9 ± 1.2 | 25.1 ± 1.1 | 23.5 ± 1 | 22.2 ± 1 | 37.4 ± 1.7
C1CCCC1 [cyclopentane] + CCCC[N+]1(C)CCCC1.O=S(=O)([O-])C(F)(F)F | 17.4 ± 0.8 | 15.9 ± 0.7 | 14.6 ± 0.6 | 13.5 ± 0.6 | 12.6 ± 0.6 | 11.7 ± 0.5 | 11 ± 0.5 | 19.2 ± 0.9
CCO [ethanol] + CCCC[N+]1(C)CCCC1.O=S(=O)([O-])C(F)(F)F | 1 ± 0.04 | 0.948 ± 0.034 | 0.9 ± 0.033 | 0.862 ± 0.032 | 0.827 ± 0.032 | 0.791 ± 0.031 | 0.763 ± 0.031 | 1.05 ± 0.04
CCc1ccccc1 [ethylbenzene] + CCCC[N+]1(C)CCCC1.O=S(=O)([O-])C(F)(F)F | 3.45 ± 0.15 | 3.46 ± 0.15 | 3.48 ± 0.15 | 3.5 ± 0.15 | 3.51 ± 0.15 | 3.53 ± 0.16 | 3.54 ± 0.16 | 3.43 ± 0.15
CO [methanol] + CCCC[N+]1(C)CCCC1.O=S(=O)([O-])C(F)(F)F | 0.684 ± 0.029 | 0.655 ± 0.029 | 0.628 ± 0.029 | 0.604 ± 0.028 | 0.581 ± 0.028 | 0.563 ± 0.028 | 0.543 ± 0.028 | 0.717 ± 0.03
C1CCOC1 [tetrahydrofuran] + CCCC[N+]1(C)CCCC1.O=S(=O)([O-])C(F)(F)F | 1.39 ± 0.06 | 1.41 ± 0.06 | 1.42 ± 0.06 | 1.43 ± 0.06 | 1.44 ± 0.06 | 1.45 ± 0.06 | 1.46 ± 0.06 | 1.38 ± 0.05

Second part, the molecule after the results:

activity coefficient (308.15 K) | activity coefficient (318.15 K) | activity coefficient (328.15 K) | activity coefficient (338.15 K) | activity coefficient (348.15 K) | activity coefficient (358.15 K) | activity coefficient (368.15 K) | activity coefficient (298.15 K) | Compound
27.5 ± 1.2 | 26.1 ± 1.2 | 24.8 ± 1.1 | 23.6 ± 1 | 22.6 ± 1 | 21.6 ± 1 | 20.8 ± 0.9 | 29 ± 1.3 | C=CCCCCC [1-heptene] + CCCC[N+]1(C)CCCC1.O=S(=O)([O-])C(F)(F)F
5.3 ± 0.23 | 5.39 ± 0.24 | 5.47 ± 0.24 | 5.56 ± 0.25 | 5.64 ± 0.25 | 5.7 ± 0.25 | 5.78 ± 0.25 | 5.21 ± 0.23 | C#CCCCCC [1-heptyne] + CCCC[N+]1(C)CCCC1.O=S(=O)([O-])C(F)(F)F
3.66 ± 0.16 | 3.76 ± 0.17 | 3.85 ± 0.17 | 3.94 ± 0.17 | 4.02 ± 0.18 | 4.09 ± 0.18 | 4.18 ± 0.18 | 3.57 ± 0.16 | C#CCCCC [1-hexyne] + CCCC[N+]1(C)CCCC1.O=S(=O)([O-])C(F)(F)F
7.63 ± 0.34 | 7.7 ± 0.34 | 7.76 ± 0.34 | 7.83 ± 0.35 | 7.88 ± 0.35 | 7.94 ± 0.35 | 7.99 ± 0.35 | 7.56 ± 0.33 | C#CCCCCCC [1-octyne] + CCCC[N+]1(C)CCCC1.O=S(=O)([O-])C(F)(F)F
2.66 ± 0.12 | 2.74 ± 0.12 | 2.82 ± 0.12 | 2.88 ± 0.13 | 2.95 ± 0.13 | 3.01 ± 0.13 | 3.08 ± 0.14 | 2.59 ± 0.11 | C#CCCC [1-pentyne] + CCCC[N+]1(C)CCCC1.O=S(=O)([O-])C(F)(F)F
– | – | 1.49 ± 0.06 | 1.42 ± 0.06 | 1.35 ± 0.05 | 1.29 ± 0.05 | 1.24 ± 0.05 | – | CCCCO [butan-1-ol] + CCCC[N+]1(C)CCCC1.O=S(=O)([O-])C(F)(F)F
174 ± 8 | 157 ± 7 | 143 ± 6 | 130 ± 6 | 120 ± 5 | 110 ± 5 | 101 ± 5 | 195 ± 9 | CCCCCCCCCC [decane] + CCCC[N+]1(C)CCCC1.O=S(=O)([O-])C(F)(F)F
64.7 ± 2.9 | 59.3 ± 2.6 | 54.2 ± 2.4 | 50.4 ± 2.2 | 46.7 ± 2.1 | 43.3 ± 1.9 | 40.8 ± 1.8 | 71.5 ± 3.2 | CCCCCCC [heptane] + CCCC[N+]1(C)CCCC1.O=S(=O)([O-])C(F)(F)F
20.2 ± 0.9 | 19.2 ± 0.9 | 18.1 ± 0.8 | 17.3 ± 0.8 | 16.4 ± 0.7 | 15.7 ± 0.7 | 15 ± 0.7 | 21.6 ± 1 | C=CCCCC [hex-1-ene] + CCCC[N+]1(C)CCCC1.O=S(=O)([O-])C(F)(F)F
50.6 ± 2.3 | 46.4 ± 2.1 | 42.2 ± 1.9 | 38.8 ± 1.7 | 35.8 ± 1.6 | 33.3 ± 1.5 | 31.3 ± 1.4 | 55.8 ± 2.5 | CCCCCC [hexane] + CCCC[N+]1(C)CCCC1.O=S(=O)([O-])C(F)(F)F
122 ± 5 | 111 ± 5 | 100 ± 5 | 92.4 ± 4.1 | 85.2 ± 3.8 | 78.9 ± 3.5 | 73.3 ± 3.3 | 135 ± 6 | CCCCCCCCC [nonane] + CCCC[N+]1(C)CCCC1.O=S(=O)([O-])C(F)(F)F
38.4 ± 1.7 | 36.2 ± 1.6 | 34.3 ± 1.5 | 32.7 ± 1.5 | 31.2 ± 1.4 | 29.8 ± 1.3 | 28.6 ± 1.3 | 40.9 ± 1.8 | C=CCCCCCC [oct-1-ene] + CCCC[N+]1(C)CCCC1.O=S(=O)([O-])C(F)(F)F
86.9 ± 3.9 | 79.4 ± 3.5 | 73.1 ± 3.3 | 67.2 ± 3 | 62.9 ± 2.8 | 58.4 ± 2.6 | 54.4 ± 2.4 | 95.2 ± 4.3 | CCCCCCCC [octane] + CCCC[N+]1(C)CCCC1.O=S(=O)([O-])C(F)(F)F
46.1 ± 2.1 | 40.3 ± 1.8 | 35.9 ± 1.6 | 32.2 ± 1.4 | 28.9 ± 1.3 | 26.1 ± 1.2 | – | 52.1 ± 2.3 | CCCCC [pentane] + CCCC[N+]1(C)CCCC1.O=S(=O)([O-])C(F)(F)F
1.26 ± 0.05 | 1.2 ± 0.05 | 1.14 ± 0.04 | 1.08 ± 0.04 | 1.04 ± 0.04 | 0.995 ± 0.035 | 0.953 ± 0.034 | – | CCCO [propan-1-ol] + CCCC[N+]1(C)CCCC1.O=S(=O)([O-])C(F)(F)F
